Experimental findings from US20210353658A1, “COMPOSITION AND METHOD OF INHIBITING CORTISONE REDUCTASE” (Amorepacific Corporation, priority 2018, published 2021) are described below.

The target of assay [1] is T1, 11β-hydroxysteroid dehydrogenase type 1 (Homo sapiens, UniProt P28845).
T1 construct: endogenous in cells; host or cells: normal human epidermal keratinocytes (NHEK), UVB-irradiated
In words: Cortisone reductase activity inhibition: cortisol concentration in the culture solution of UVB-irradiated, cortisone-treated NHEK, by ELISA. It is filed as cell-based. The following applies: UVB 25 mJ/cm^2, cortisone 10 μg/ml, compound 10 μg/ml, cultured 4 days, ELISA (FIG. 1). On the procedure:
(§1) Normal human epidermal keratinocytes (NHEK) were cultured in a 6-well plate incubator. Specifically, the normal human epidermal keratinocytes (NHEK) were cultured for 4 days by replacing it with phosphate-buffered saline (PBS) after 24 hours to irradiate UVB (25 mJ/cm^2) and adding cortisone (10 μg/ml) and a compound represented by Chemical Formula 1-1 (glucocerebrosides (soy, 98%), Avanti Polar Lipids, Inc.) to NHEK culture media.
Subsequently, the cell culture solution was collected to measure a cortisol concentration in an ELISA method, and the results are shown in FIG. 1. […] Accordingly, a composition including the compound represented by Chemical Formula 1-1 as an active ingredient according to an embodiment turned out to inhibit activity of 11β-hydroxysteroid dehydrogenase type 1 that is cortisone reductase.
Background: ELISA stands for enzyme-linked immunosorbent assay.

In assay [2] the test system is keratinocyte differentiation markers of KRT1 and KRT10. In words: RT-qPCR (TAQMAN real-time PCR) gene expression of keratinocyte differentiation markers in UVB-irradiated NHEK. It is filed as cell-based, human. The following applies: compound 10 μg/ml. On the procedure:
as §1
In addition, the normal human epidermal keratinocytes (NHEK) were treated with TRIZOL to separate RNA, which was used to synthesize cDNA through RT-PCR (reverse transcriptional polymerase chain reaction). The synthesized cDNA was used to perform TAQMAN® real-time PCR and measure gene expression amounts of keratinocyte differentiation markers of KRT1 and KRT10, and the results are shown in FIGS. 2 and 3. Referring to FIGS. 2 and 3, in the well to which the compound represented by Chemical Formula 1 (10 μg/ml) was added, the gene expression of the keratinocyte differentiation markers (KRT10, KRT1) inhibited by ultraviolet (UVB) rays in the keratinocytes was increased. […]

T1 sequence (P28845 whole entry): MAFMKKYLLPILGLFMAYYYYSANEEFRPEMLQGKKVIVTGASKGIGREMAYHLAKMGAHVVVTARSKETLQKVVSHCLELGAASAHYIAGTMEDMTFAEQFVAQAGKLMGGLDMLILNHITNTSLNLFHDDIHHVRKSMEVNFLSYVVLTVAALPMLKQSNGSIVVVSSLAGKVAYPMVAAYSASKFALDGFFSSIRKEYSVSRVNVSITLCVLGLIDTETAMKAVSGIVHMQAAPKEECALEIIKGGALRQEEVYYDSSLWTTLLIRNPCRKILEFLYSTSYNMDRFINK

As to `CCCCCCCCC/C=C/CC/C=C/[C@@H](O)[C@H](CO[C@@H]1OC(CO)[C@H](O)C(O)C1O)NC(=O)C(O)CCCCCCCCCCCCCC` (stereo partly drawn) [Chemical Formula 1-1, glucocerebrosides (soy, 98%)], the “cortisol concentration in cell culture solution” value in assay [1] is “greatly did not increase”. Also, the “gene expression of keratinocyte differentiation marker KRT10 inhibited by UVB” value in assay [2] (RT-qPCR (FIG. 2)) is “increased”. Besides, the “gene expression of keratinocyte differentiation marker KRT1 inhibited by UVB” value in assay [2] (RT-qPCR (FIG. 3)) is “increased”.
